Experimental findings from patent US10259812B2, “CGRP receptor antagonists” (Heptares Therapeutics Limited, priority 2015, dated 2019) are described below.

Molecules are shown by their SMILES. Converted amounts (≈) assume the structure as drawn.

The target of data set [1] is T1, Human CGRP receptors (consisting of CRLR and RAMP1) (Homo sapiens, UniProt O60894+Q16602).
T1 construct: made in house; host or cells: Sf21 insect cells (baculovirus, pFastBac dual vector); membrane homogenates
Kind of data set: Radioligand binding assay (3H-telcagepant displacement). To be noted: 0.5 nM 3H-telcagepant, Sf21 cell membranes, Ki by Cheng-Prussoff; read-out: pKi average (converted). On the procedure: Human Calcitonin Receptor Like Receptor (CRLR) and human RAMP1 were cloned into Invitrogen's (ThermoFisher Scientific, UK) pFastBac dual expression vector. Transposition of CRLR/RAMP1 DNA was performed using Invitrogen's Bac-to-Bac Baculovirus Expression Systems. P0 baculovirus was generated by transfecting SF9 cells with bacmid DNA using Cellfectin® II transfection reagent (ThermoFisher Scientific, UK, catalog number 10362-100). Following P0 generation P1 virus was then generated ready for large scale infection and membrane preparation. Sf21 cells were grown in expression medium ESF921 (Expression Systems, USA, catalog number 96-001-01) supplemented with 10% heat-inactivated FBS and 1% Pen/Strep and were infected at a cell density of 2.5×10^6 cells/mL and an MOI of 2. Expression was carried out over 48 h in a shaking incubator set at 27° C. The cell culture was centrifuged at 2,500 rcf for 10 min at 4° C. The pellets were resuspended in cold PBS supplemented with Roche's Complete EDTA-free protease inhibitor cocktail tablets (Roche Applied Sciences, catalog number 05056489001), 1 mM PMSF and 1 mM EDTA. The resuspended cell paste was then centrifuged at 3,273 rcf for 12 min at 4° C. The supernatant was discarded and the pellet frozen at −80° C. The cell pellet from a 4 L culture was resuspended in buffer containing 50 mM Hepes pH 7.5, 150 mM NaCl, 8 Roche EDTA-free protease inhibitor cocktail tablets and 1 mM PMSF. The suspension was left stirring at rt for 1 h and then homogenised for 90 s at 9,500 rpm using a VDI 25 (VWR, USA) homogeniser. The cells were then lysed using a Microfluidizer processor M-110L Pneumatic (Microfluidics, USA). After lysis, the mixture was homogenised for 90 s at 9,500 rpm and then centrifuged at 335 rcf for 10 min. The supernatant was then further ultra-centrifuged at 42,000 rpm for 90 min. […]
Human CGRP receptors (consisting of CRLR and RAMP1) expressed in insect Sf21 cell membrane homogenates were re-suspended in the binding buffer (10 mM HEPES, pH 7.4, 5 mM MgCl2, 0.2% BSA) to a final assay concentration of […]. Saturation isotherms were determined by the addition of various concentrations of ^3H-telcagepant (Ho et al, The Lancet, 2008, 372, 2115) (in a total reaction volume of 250 μL) for 60 min at rt. […] Non-specific binding (NSB) was measured in the presence of 10 nM MK-3207 hydrochloride (CAS No. 957116-20-0). Radioactivity on the filter was counted (1 min) on a microbeta counter after addition of 50 μL of scintillation fluid. […] IC50 values were derived from the inhibition curve and the affinity constant (Ki) values were calculated using the Cheng-Prussoff equation (Cheng et al, Biochem. Pharmacol. 1973, 22, 3099-3108). […]

The target in a further data set is T2, human CGRP receptor (Homo sapiens, UniProt O60894+Q16602).
T2 construct: The human neuroblastoma cell line SK-N-MC endogenously expressing the human CGRP receptor; endogenous in cells; host or cells: SK-N-MC human neuroblastoma cells
T2 sequence (Q16602 23-461): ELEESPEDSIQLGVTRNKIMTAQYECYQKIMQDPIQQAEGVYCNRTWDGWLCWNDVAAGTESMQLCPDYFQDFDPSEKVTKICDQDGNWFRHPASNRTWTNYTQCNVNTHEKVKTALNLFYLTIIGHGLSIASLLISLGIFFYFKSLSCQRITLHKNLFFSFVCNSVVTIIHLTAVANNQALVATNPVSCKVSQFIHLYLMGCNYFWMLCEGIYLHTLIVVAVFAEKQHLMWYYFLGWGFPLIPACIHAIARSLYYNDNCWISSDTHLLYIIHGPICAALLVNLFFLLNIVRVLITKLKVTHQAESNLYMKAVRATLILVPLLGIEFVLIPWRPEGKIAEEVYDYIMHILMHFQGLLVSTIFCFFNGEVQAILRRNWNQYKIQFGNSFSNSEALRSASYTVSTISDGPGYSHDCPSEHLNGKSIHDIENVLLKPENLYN
T2 sequence (O60894 27-148): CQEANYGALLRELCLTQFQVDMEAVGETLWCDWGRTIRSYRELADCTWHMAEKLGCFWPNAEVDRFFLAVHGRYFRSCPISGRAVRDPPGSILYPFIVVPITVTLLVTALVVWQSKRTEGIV
Kind of data set: cAMP functional assay (HTRF) in SK-N-MC cells. Particulars: read-out: pKb average (converted). It is filed as cell-based. The protocol: cAMP production following receptor activation was determined using the Homogeneous Time-Resolved Fluorescence (HTRF) cAMP dynamic-2 assay (Cisbio, France). The human neuroblastoma cell line SK-N-MC endogenously expressing the human CGRP receptor was seeded at a density of 12,500 cells/well in solid walled 96 well half area plates (Costar, Catalog Number 3688, Corning Life Sciences, Germany). After 16 h incubation at 37° C. media was removed and cells were incubated at 37° C. for 30 min in serum free media containing 500 μM IBMX (Tocris, Abingdon, UK, Catalog Number 2845) and increasing concentrations of test antagonist. Following this cells were challenged with an EC80 concentration of human CGRP (0.3 nM) for a further 30 min at 37° C. and then cAMP production was determined as manufacturer's instructions before plates were read on a PheraStar fluorescence plate reader (BMG LabTech, Germany). IC50 values were derived from the inhibition curve. The pIC50 values (where pIC50=−log10 IC50) were converted to a functional pKb value using a modified Cheng-Prussoff equation where Kd=agonist EC50 and L hot=agonist challenge concentration. The pKb values of certain compounds of the invention are detailed in Table 3.
A general note: TR-FRET usually uses a lanthanide donor and a delayed reading to cut background.

Data set [2] can be described thus: Thermodynamic solubility profiling. Particulars: 24 h at rt. It is filed as physicochemical. On the procedure:
A 50 mM DMSO stock solution of test compound was prepared, and from this, a working solution of 1 mM was prepared by dilution with DMSO. The UV absorbance of working solution was scanned from 220 nm to 1000 nm to identify the wavelength maxima of test compound. The 1 mM working solution was then serially diluted in DMSO to different concentrations to determine linearity/calibration curve. […] The resulting solution was then kept on a RotoSpin shaker at 50 rpm for 24 h at rt before the solution was filtered using 0.45 micron PVDF injector filters in order to remove the insoluble fraction of the compound. Subsequently, 150 uL of the filtrate is taken for quantification using a UV spectrophotometer, acquiring the optical density of standard solutions and test compound at the same wavelength maxima. From the optical density of test compound the thermodynamic solubility is calculated using the linearity/calibration curve and expressed as micromolar (μM). Solubility profiles of certain compounds of the invention are detailed in Table 6.

The nature of data set [3]: Pharmacokinetic profiling in rat. It is filed as in vivo, male Sprague Dawley rats. To be noted: male, Sprague Dawley, plasma, inhaled or intranasal.
Description: Prior to IN dosing rats were anaesthetised with an intramuscular dose of 25-30 mg/kg ketamine cocktail (ketamine, xylazine hydrochloride and acepromazine maleate in saline) and the dose is introduced over 20-30 s via a polyethylene PE-10 tube inserted approximately 5 mm into the nasal cavity of the rat.
(§1) Following dosing by the routes above blood samples were taken at several time points (typically pre-dose, 0.083, 0.25, 0.5 1, 2, 4, 8 and 24 h) via serial tail vein bleeds (rat) or cephalic or saphenous vein (monkey) from the animal and centrifuged to separate plasma for analysis by LC/MS/MS assay. WinNonlin v6.2 statistics software (Pharsight Corporation, California, USA) was used to generate pharmacokinetic parameters using the non-compartmental model.
Data set [4] is described as follows: Pharmacokinetic profiling in cynomolgus monkey. It is filed as in vivo, male Cynomolgus Monkeys. Particulars: male, plasma, acidified saline.
Description: as §1
The mark [5] stands for this setting: aqueous buffer, thermodynamic from solid, pH 6 (Sodium Phosphate Buffer).
Setting [6] is: aqueous buffer, thermodynamic from solid, pH 7.4 (PBS buffer).

T1 sequence (Q16602 23-461): as the sequence (Q16602 23-461) above
T1 sequence (O60894 27-148): as the sequence (O60894 27-148) above

`Cc1cc(C[C@@H](NC(=O)N2CCC(n3c(=O)[nH]c4ncccc43)CC2)C(=O)N2CCC3(CCN(c4ccncc4)CC3)C2)cc2cn[nH]c12` [Example 7, N-{(2R)-3-(7-methyl-1H-indazol-5-yl)-1-oxo-1-[8-(pyridin-4-yl)-2,8-diazaspiro[4.5]dec-2-yl]propan-2-yl}-4-(2-oxo-2,3-dihydro-1H-imidazo[4,5-b]pyridin-1-yl)piperidine-1-carboxamide]: the Ki in data set [1] is 0.0501 nM. Also, the Kb on human CGRP receptor is 0.398 nM. Further, the solubility (thermodynamic) (usually the concentration in solution at equilibrium with solid) at 24 h in data set [2] (setting [5]) was found to be 3630 µM (≈ 2400 µg/mL); in data set [2] (setting [6]) it was 2160 µM (≈ 1430 µg/mL).
As for `NCCCC[C@H](NC(=O)[C@@H](Cc1cc(Br)c(O)c(Br)c1)NC(=O)N1CCC(N2Cc3ccccc3NC2=O)CC1)C(=O)N1CCN(c2ccncc2)CC1` [olcegepant, reference compound], the thermodynamic solubility at 24 h in data set [2] (pH 6 (Sodium Phosphate Buffer)) is reported as 150 µM (≈ 130 µg/mL); in data set [2] (pH 7.4 (PBS buffer)) it was 431 µM (≈ 375 µg/mL).
Take `Cc1cc(C[C@@H](NC(=O)N2CCC(N3Cc4ccccc4NC3=O)CC2)C(=O)N2CCC3(CCN(C4CCNCC4)CC3)C2)cc2cn[nH]c12` [Example 4, N-{(2R)-3-(7-methyl-1H-indazol-5-yl)-1-oxo-1-[8-(piperidin-4-yl)-2,8-diazaspiro[4.5]dec-2-yl]propan-2-yl}-4-(2-oxo-1,4-dihydroquinazolin-3(2H)-yl)piperidine-1-carboxamide]: the Ki in data set [1] was 0.0794 nM. Also, the Kb at human CGRP receptor was 0.794 nM. Besides, the thermodynamic solubility at 24 h in data set [2] (setting [5]) turned out to be 1350 µM (≈ 918 µg/mL); in data set [2] (setting [6]), 1150 µM (≈ 783 µg/mL).
In the case of `CN[C@H](C)C(=O)N1CCC2(CC1)CCN(C(=O)[C@@H](Cc1cc(C)c3[nH]ncc3c1)NC(=O)N1CCC(c3cc4ccccc4[nH]c3=O)CC1)C2` [Example 2, N-[(2R)-1-[8-(N-methyl-D-alanyl)-2,8-diazaspiro[4.5]dec-2-yl]-3-(7-methyl-1H-indazol-5-yl)-1-oxopropan-2-yl]-4-(2-oxo-1,2-dihydroquinolin-3-yl)piperidine-1-carboxamide], the Kb on human CGRP receptor is 1.26 nM. In addition, the bioavailability – broadly, dose-corrected exposure relative to a reference, in per cent – came out at 20% in data set [3] and 100% in data set [4] (Cynomolgus monkey sc, 0.5 mg/kg). In addition, the clearance – broadly, the volume of plasma or blood freed of the substance per unit of time – in data set [4] (Cynomolgus monkey iv, 1 mg/kg) worked out at 8 mL/min/kg. Besides, the values for the thermodynamic solubility at 24 h in data set [2] (setting [5]) and in data set [2] (setting [6]) were 1290 µM (≈ 876 µg/mL) and 800 µM (≈ 545 µg/mL), respectively.
Turning to `CN[C@H](C)C(=O)N1CCC2(CC1)CCN(C(=O)[C@@H](Cc1cc(C)c3[nH]ncc3c1)NC(=O)N1CCC(N3Cc4ccccc4NC3=O)CC1)C2` [Example 6, N-[(2R)-1-[8-(N-methyl-D-alanyl)-2,8-diazaspiro[4.5]dec-2-yl]-3-(7-methyl-1H-indazol-5-yl)-1-oxopropan-2-yl]-4-(2-oxo-1,4-dihydroquinazolin-3(2H)-yl)piperidine-1-carboxamide], the Kb on human CGRP receptor was 0.631 nM. Besides, the solubility (thermodynamic) at 24 h worked out at 1500 µM (≈ 1020 µg/mL) in data set [2] (setting [5]) and 1570 µM (≈ 1070 µg/mL) in data set [2] (setting [6]).
On to `CN[C@H](C)C(=O)N1CCC2(CC1)CCN(C(=O)[C@@H](Cc1cc(C)c3[nH]ncc3c1)NC(=O)N1CCC3(CC1)OC(=O)Nc1ncccc13)C2` [Example 5, N-[(2R)-1-[8-(N-methyl-D-alanyl)-2,8-diazaspiro[4.5]dec-2-yl]-3-(7-methyl-1H-indazol-5-yl)-1-oxopropan-2-yl]-2′-oxo-1′,2′-dihydro-1H-spiro[piperidine-4,4′-pyrido[2,3-d][1,3]oxazine]-1-carboxamide], for which the Ki in data set [1] was 0.1 nM. Besides, the Kb on human CGRP receptor is 0.501 nM. For the same compound, the solubility (thermodynamic) at 24 h in data set [2] (setting [5]) is 1580 µM (≈ 1060 µg/mL); in data set [2] (setting [6]), 1460 µM (≈ 979 µg/mL).
For the compound `CN[C@H](C)C(=O)N1CCC2(CC1)CCN(C(=O)[C@@H](Cc1cc(C)c3[nH]ncc3c1)NC(=O)N1CCC(n3c(=O)[nH]c4ncccc43)CC1)C2` [Example 3, N-[(2R)-1-[8-(N-methyl-D-alanyl)-2,8-diazaspiro[4.5]dec-2-yl]-3-(7-methyl-1H-indazol-5-yl)-1-oxopropan-2-yl]-4-(2-oxo-2,3-dihydro-1H-imidazo[4,5-b]pyridin-1-yl)piperidine-1-carboxamide], in data set [1], the Ki is 0.0794 nM. Also, on human CGRP receptor, the Kb was 0.631 nM. For the same compound, the thermodynamic solubility at 24 h is 1430 µM (≈ 961 µg/mL) in data set [2] (setting [5]) and 1550 µM (≈ 1040 µg/mL) in data set [2] (setting [6]).
As to `Cc1cc(C[C@@H](NC(=O)N2CCC(n3c(=O)[nH]c4ncccc43)CC2)C(=O)N2CCC3(CCN(C4CCNCC4)CC3)C2)cc2cn[nH]c12` [Example 1, N-{(2R)-3-(7-methyl-1H-indazol-5-yl)-1-oxo-1-[8-(piperidin-4-yl)-2,8-diazaspiro[4.5]dec-2-yl]propan-2-yl}-4-(2-oxo-2,3-dihydro-1H-imidazo[4,5-b]pyridin-1-yl)piperidine-1-carboxamide], at human CGRP receptor, the Kb was 0.251 nM. In data set [2] (setting [5]), this compound had a solubility (thermodynamic) at 24 h of 1030 µM (≈ 688 µg/mL).
